Experimental data from article PMC11864979, “First-in-class ultralong-target-residence-time p38α inhibitors as a mitosis-targeted therapy for colorectal cancer” (Nature Cancer, 2025).
“And” between values parts separate entries of the source, which are not always exact repeats. Equal values may be shown once. Read-outs that look alike come from different tables or passages of the source.

Experiments:
p38α = p38α (Homo sapiens, UniProt Q16539); assay: target residence time (TRT) fluorescence polarization jump-dilution assay; format: binding
p38α, sequence (Q16539 whole entry): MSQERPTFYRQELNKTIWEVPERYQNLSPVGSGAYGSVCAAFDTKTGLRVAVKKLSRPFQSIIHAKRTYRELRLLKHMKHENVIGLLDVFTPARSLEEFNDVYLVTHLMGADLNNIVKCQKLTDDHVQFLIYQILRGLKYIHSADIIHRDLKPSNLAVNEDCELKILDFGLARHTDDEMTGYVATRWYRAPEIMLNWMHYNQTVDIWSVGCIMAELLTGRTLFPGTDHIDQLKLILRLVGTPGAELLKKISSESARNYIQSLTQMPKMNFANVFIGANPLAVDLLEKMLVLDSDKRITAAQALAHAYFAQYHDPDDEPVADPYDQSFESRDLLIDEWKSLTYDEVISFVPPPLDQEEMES
Description: TRTs were determined using a fluorescence polarization assay kit (Transcreener ADP, BellBrook Labs)[29]. […] The formed complex was ‘jump-diluted’ 1:100 (0.5 µl in 49.5 µl) in a 96-half-area-well plate with ATF2 (82 μM), ATP (40 μM) and ADP as the kinase assay detection reagents. The plate was measured every 3 min for 4 h. Fluorescence polarization was detected using the plate reader VictorNivo (PerkinElmer). The data were analyzed using the integrated rate equation in GraphPad Prism version 7.03 software. The residence time was calculated from the reciprocal value of koff.

KAP organoids = assay: cell viability in KAP organoids (CellTiter-Glo); format: cell-based, mouse; settings: for viability at 1 µM: Mus musculus
Description: (§1) For in vitro treatment studies, organoids were mechanically dissociated and digested using TrypLE supplemented with 100 µg ml^−1 DNaseI and 10.5 µM Y-27632 dihydrochloride (Invitrogen) at 37 °C. A total of 1,000–2,000 single cells were plated per well in white 96-well plates (Greiner) in culture medium containing 10% GFR Matrigel or Cultrex BME. The treatment with doxycycline (5 µg ml^−1), pharmacological inhibitors or corresponding volumes of DMSO was started 24 h after plating. Doxycycline was obtained from Sigma-Aldrich. […] Cell viability was measured by means of CellTiter-Glo 3D or CellTiter-Glo 2.0 reagent (Promega) according to the manufacturers’ instructions and the Infinite M Plex reader (Tecan, i-control version 3.9.1 software). Results were normalized to vehicle (DMSO) or to shNC. For cell-doubling assays, the cell number was quantified at the corresponding time points using Guava EasyCyte flow cytometer (Luminex, CytoSoft v5.2 software).

PDO8 = assay: cell viability in patient-derived CRC organoids PDO8; format: cell-based, human
Description: as §1

PDO12 = assay: cell viability in patient-derived CRC organoids PDO12; format: cell-based, human; settings: PDO12, 0.5 µM, 4 d
Description: as §1

PDO15 = assay: cell viability in patient-derived CRC organoids PDO15; format: cell-based, human
Description: as §1

HCT 116 = assay: cell viability in human CRC cell line HCT 116; format: cell-based
Description: (§2) To generate KAP^2D cells, KAP organoids were isolated from Matrigel, fragmented by mechanical dissociation and plated without any extracellular matrix on common cell culture dishes. Phoenix-Eco packaging cells (CRL-3214), HCT-15 (CCL-225), HCT 116 (CCL-247), COLO 205 (CCL-222), LS 174T (CL-188), RKO (CRL-2577) and HT-29 (HTB-38) were obtained from the American Type Culture Collection. The cells were cultured at 37 °C and 7% CO2 with RPMI (KAP^2D cells) or DMEM (other cell lines), supplemented with 10% FBS and penicillin–streptomycin. KAP^2D cells were authenticated using PCR (Kras locus and Trp53 locus). Phoenix-Eco packaging cells and HCT-15, HCT 116, COLO 205, LS 174T, RKO and HT-29 cells were authenticated by the provider using short tandem repeat profiling. No commonly misidentified cell lines were used. Mycoplasma contamination was excluded by a PCR-based analysis.
as §1

RKO = assay: cell viability in human CRC cell line RKO; format: cell-based
Description: as §2, §1

KAP^2D cells [1] = assay: EdU incorporation in KAP^2D cells; format: cell-based, mouse; settings: replicates, experiment and repetition
Description: Immunofluorescence staining on cells and organoids was performed on glass coverslips or tissue culture chambers (Sarstedt). Organoids were plated in medium containing 10% Matrigel or Cultrex BME. The cultures were fixed with 4% paraformaldehyde and stained with specific antibodies and DAPI (Vector Labs). All used antibodies and dilutions are listed in the Nature Portfolio Reporting Summary. For analyzing DNA synthesis, the Molecular Probes Click-iT EdU Alexa Fluor 555 kit was used 24 h after EdU incorporation with DAPI counterstaining. SA-β-Gal staining of cells was performed in cell culture dishes (cells) or tissue culture chambers (organoids) after fixation with 0.5% glutaraldehyde as described above. Human cultures were incubated with X-Gal solution at pH 6.0 for ~4 h.

KAP^2D cells [2] = assay: annexin V apoptosis analysis in KAP^2D cells; format: cell-based, mouse; settings: for Annexin V+ cells: Fig. 5a
Description: Apoptosis was analyzed with the FITC annexin V apoptosis detection kit (Biolegend). Both measurements were performed with FACS Canto II (BD) and physical parameters were used to exclude cell debris and cell doublets.

subcutaneous KAP CRCs = assay: treatment of subcutaneous KAP tumors in wild-type mice; format: in vivo, mouse; settings: for Tumor volume: single tumors, Fig. 5i
Description: Subcutaneous injection, splenic seeding or cecum injection of organoids was performed in 8–10-week-old C57BL/6 N/Crl, Rag2^−/− (B6.Cg-Rag2^tm1.1Cgn/J), or CB17 Scid beige (CB17.Cg-Prkdc^scidLyst^bg-J/Crl) mice, obtained from Charles River. The organoids were dissociated into single cells, washed with PBS and injected in a 1:1 mixture of PBS and Matrigel. For murine organoids, 1 × 10^5 cells were injected into the left and right flanks or the spleen capsule and 2 × 10^6 cells were injected into the cecum wall. For human organoids, 4 × 10^5 cells were injected into the flanks of CB17 Scid beige mice. For splenic seeding and cecum injection, mice were anaesthetized using ketamine (100 mg kg^−1, intraperitoneally) and xylazin (10 mg/kg, intraperitoneally) in NaCl and a small laparotomy below the thorax was performed.
No mice were excluded during treatment studies.

CNC(=O)c1ccc2c(c1)C(=O)c1ccc(Nc3ccc(F)c(NC(=O)C4CC4)c3)cc1CC2 [Compound 2015]
TRT (p38α; Fig. 2e, replicates): 4961.7 s and 5666.0 s and 5182.4 s | TRT (p38α; reciprocal of koff): 5,270 s | Cell viability (%) (KAP organoids; Fig. 2b, compound screen, replicates): 20.98% and 10.41% and 17.65% | Cell viability (%) (KAP organoids; Fig. 2f, 0,5 µM, replicates, 5 µM): 20.49% and 19.41% | Cell viability (%) (KAP organoids; Fig. 2f, 0,25 µM, replicates, 25 µM): 76.91% and 71.00% | Cell viability (%) (KAP organoids; Fig. 2f, 1 µM, replicates): 22.79% and 21.48% | viability at 1 µM (KAP organoids; Fig. 2f, 1 µM, replicates, read-out: Cell viability (%)): 22.2% | viability at 1 µM (KAP organoids; drug screen in KAP organoids, 1 µM concentration, n = 3, mean, read-out: Cell viability (% of DMSO)): 16.4% | induction of cell death in KAP organoids (in words) (KAP organoids; viability assay): increased cell death induction | viability at 1 µM (PDO8; Homo sapiens, 96 h, PDO8, 1 µM, 4 days): 47.8% | Cell viability (%) (PDO8; PDO8, 0.5 µM, 4 d, 0.5 µM): 62.35% and 47.16% and 31.30% | Cell viability (%) (PDO8; PDO8, 1 µM, 4 days, 1 µM): 40.47% and 33.30% | viability at 0.5 µM (PDO12; Homo sapiens, 96 h, read-out: Cell viability (%)): 40% | Cell viability (%) (PDO12; 0.5 µM): 54.51% and 54.94% | viability at 0.5 µM (PDO15; Homo sapiens, 96 h, PDO15, 0.5 µM, 4 d, read-out: Cell viability (%)): 77.8% | viability at 1 µM (PDO15; Homo sapiens, 96 h, PDO15, 1 µM, 4 days, read-out: Cell viability (%)): 42.9% | Cell viability (%) (PDO15; PDO15, 0.5 µM, 4 d, 0.5 µM): 81.70% and 63.83% | Cell viability (%) (PDO15; PDO15, 1 µM, 4 days, 1 µM): 57.05% and 51.26% | HCT 116 Cell viability (%) (HCT 116; 0.0137 µM, 4 d): 85.88% and 79.68% and 90.88% and 87.20% | HCT 116 Cell viability (%) (HCT 116; 0.0412 µM, 4 d): 87.17% and 85.37% and 79.18% and 81.34% and 80.02% | HCT 116 Cell viability (%) (HCT 116; 0.1235 µM, 4 d): 87.59% and 86.63% and 89.97% and 77.29% and 78.27% | HCT 116 Cell viability (%) (HCT 116; 0.3704 µM, 4 d): 48.15% and 38.21% and 37.69% and 25.63% and 24.67% and 24.34% | HCT 116 Cell viability (%) (HCT 116; 1.1111 µM, 4 d): 30.94% and 32.21% and 17.75% and 19.27% and 17.57% | IC50 (HCT 116; Homo sapiens, 96 h, HCT 116, 4 d of treatment): 223 nM | viability at 0.0137 µM (HCT 116; Homo sapiens, HCT-116, 96 h, 0.0137 µM, 4 d, read-out: HCT 116 Cell viability (%)): 90.6% | viability at 0.0412 µM (HCT 116; Homo sapiens, HCT-116, 96 h, 0.0412 µM, 4 d, read-out: HCT 116 Cell viability (%)): 90.7% | viability at 0.1235 µM (HCT 116; Homo sapiens, HCT-116, 96 h, 0.1235 µM, 4 d, read-out: HCT 116 Cell viability (%)): 90.7% | viability at 1.1111 µM (HCT 116; Homo sapiens, HCT-116, 96 h, 1.1111 µM, 4 d): 28.5% | RKO Cell viability (%) (RKO; 0.0137 µM, ED Fig. 9g, Repetition, replicates): 116.22% and 90.48% and 118.38% | RKO Cell viability (%) (RKO; 0.0137 µM, ED Fig. 9g, first experiment, replicates): 100.34% and 101.05% | RKO Cell viability (%) (RKO; 0.0412 µM, ED Fig. 9g, Repetition, replicates): 83.96% and 99.53% | RKO Cell viability (%) (RKO; 0.0412 µM, ED Fig. 9g, first experiment, replicates): 92.30% and 91.06% | RKO Cell viability (%) (RKO; 0.1235 µM, ED Fig. 9g, Repetition, replicates): 63.64% and 62.87% | RKO Cell viability (%) (RKO; 0.1235 µM, ED Fig. 9g, first experiment, replicates): 80.06% and 70.93% | RKO Cell viability (%) (RKO; 0.3704 µM, ED Fig. 9g, Repetition, replicates): 22.09% and 24.58% | RKO Cell viability (%) (RKO; 0.3704 µM, ED Fig. 9g, first experiment, replicates): 38.23% and 37.54% | RKO Cell viability (%) (RKO; 1.1111 µM, ED Fig. 9g, Repetition, replicates): 19.45% and 19.66% | RKO Cell viability (%) (RKO; 1.1111 µM, ED Fig. 9g, first experiment, replicates): 16.15% and 15.81% | RKO Cell viability (%) (RKO; 3.3333 µM, ED Fig. 9g, Repetition, replicates): 19.33% and 18.47% | RKO Cell viability (%) (RKO; 3.3333 µM, ED Fig. 9g, first experiment, replicates): 14.04% and 13.50% | RKO Cell viability (%) (RKO; 10.0000 µM, ED Fig. 9g, Repetition, replicates): 17.62% and 19.44% | RKO Cell viability (%) (RKO; 10.0000 µM, ED Fig. 9g, first experiment, replicates): 15.71% and 16.52% | IC50 (RKO; Homo sapiens, 96 h, RKO, 4 d of treatment): 207 nM | viability at 0.0137 µM (RKO; Homo sapiens, RKO, 0.0137 µM, ED Fig. 9g, first experiment, replicates, read-out: RKO Cell viability (%)): 104% | viability at 0.0412 µM (RKO; Homo sapiens, RKO, 0.0412 µM, ED Fig. 9g, Repetition, replicates, read-out: RKO Cell viability (%)): 103% | viability at 0.0412 µM (RKO; Homo sapiens, RKO, 0.0412 µM, ED Fig. 9g, first experiment, replicates, read-out: RKO Cell viability (%)): 104% | viability at 0.1235 µM (RKO; Homo sapiens, RKO, 0.1235 µM, ED Fig. 9g, Repetition, replicates, read-out: RKO Cell viability (%)): 65.6% | viability at 0.1235 µM (RKO; Homo sapiens, RKO, 0.1235 µM, ED Fig. 9g, first experiment, replicates, read-out: RKO Cell viability (%)): 73.7% | viability at 0.3704 µM (RKO; Homo sapiens, RKO, 0.3704 µM, ED Fig. 9g, Repetition, replicates, read-out: RKO Cell viability (%)): 25.3% | viability at 0.3704 µM (RKO; Homo sapiens, RKO, 0.3704 µM, ED Fig. 9g, first experiment, replicates, read-out: RKO Cell viability (%)): 36.7% | viability at 1.1111 µM (RKO; Homo sapiens, RKO, 1.1111 µM, ED Fig. 9g, Repetition, replicates, read-out: RKO Cell viability (%)): 20% | viability at 1.1111 µM (RKO; Homo sapiens, RKO, 1.1111 µM, ED Fig. 9g, first experiment, replicates, read-out: RKO Cell viability (%)): 15.3% | viability at 3.3333 µM (RKO; Homo sapiens, RKO, 3.3333 µM, ED Fig. 9g, Repetition, replicates, read-out: RKO Cell viability (%)): 19.5% | viability at 3.3333 µM (RKO; Homo sapiens, RKO, 3.3333 µM, ED Fig. 9g, first experiment, replicates, read-out: RKO Cell viability (%)): 14.5% | viability at 10 µM (RKO; Homo sapiens, RKO, 10.0000 µM, ED Fig. 9g, Repetition, replicates, read-out: RKO Cell viability (%)): 20% | viability at 10 µM (RKO; Homo sapiens, RKO, 10.0000 µM, ED Fig. 9g, first experiment, replicates, read-out: RKO Cell viability (%)): 16.2% | EdU+ cells (KAP^2D cells [1]; Fig. 4j): 50.19% and 55.77% and 45.40% and 44.63% and 45.42% and 38.28% and 36.62% and 49.78% | EdU+ cells (KAP^2D cells [1]; Fig. 5b): 7.76% and 6.30% and 5.41% and 9.24% and 8.18% and 6.48% and 4.44% and 6.67% | Annexin V+ cells (KAP^2D cells [2]; 1 d of treatment): 23.30% and 25.40% and 24.30% and 22.30% and 24.90% and 20.90% | Annexin V+ cells (KAP^2D cells [2]; 2 d of treatment): 41.00% and 47.90% and 34.70% and 29.60% and 31.10% and 30.20% | Annexin V+ cells (KAP^2D cells [2]; 3 d of treatment): 53.10% and 40.00% and 40.60% and 42.30% and 39.50% and 37.30% | Annexin V+ cells (KAP^2D cells [2]; 4 d of treatment): 66.80% and 62.60% and 62.90% and 52.60% and 53.50% and 56.70% | annexin V positivity (in words) (KAP^2D cells [2]; KAP^2D, after 3–4 days of treatment): strongly increased annexin V positivity | subcutaneous KAP tumor development (in words) (subcutaneous KAP CRCs; 20 mg kg^−1 daily, oral gavage): pronounced remission of CRC | Tumor volume (subcutaneous KAP CRCs; 2 d of treatment): 87.5 mm³ and 75.0 mm³ and 126.0 mm³ and 144.0 mm³ | Tumor volume (subcutaneous KAP CRCs; 4 d of treatment): 48.0 mm³ and 56.0 mm³ and 40.0 mm³
